Five molecules from ChEMBL document CHEMBL3351965, “Taccalonolide microtubule stabilizers” (Bioorg Med Chem, 2014) can be followed below.

Data set [1] can be described thus: Half life in phosphate buffer saline. Format: physicochemical. As to conditions: phosphate buffered saline.
The next data set concerns HeLa. Briefly: Antiproliferative activity against human HeLa cells by SRB assay. Format: functional, cell-based. Background: In SRB staining, fixed cells bind dye roughly in proportion to their protein.

In the case of `CC(=O)O[C@@H]1[C@H]2[C@H]3[C@H]([C@H](OC(C)=O)[C@H](OC(C)=O)[C@]2(C)[C@H]2[C@H](C)[C@@H]4O[C@@]45OC(=O)[C@@](C)(O)[C@]5(C)[C@H]12)[C@]1(C)[C@H](C[C@@H]2O[C@@H]2[C@@H]1OC(C)=O)C(=O)[C@@H]3O`, in data set [1], the half-life is 9 h.
In the data set with HeLa, `CC(=O)O[C@@H]1[C@H]2[C@@H]3C(=O)C(O)=C4C[C@@H]5O[C@@H]5[C@H](OC(C)=O)[C@]4(C)[C@H]3[C@H](OC(C)=O)[C@H](OC(C)=O)[C@]2(C)[C@@H]2[C@@H]1[C@]1(C)C(=C[C@H]2C)OC(=O)[C@@]1(C)O` had a concentration for half-maximal inhibition (IC50) of 3.4 µM.
As for `CC(=O)O[C@@H]1[C@H]2[C@H]3[C@H]([C@H](OC(C)=O)[C@H](OC(C)=O)[C@]2(C)[C@@H]2[C@@H]1[C@]1(C)C(=C[C@@]2(C)OO)OC(=O)[C@@]1(C)O)[C@]1(C)[C@H](C[C@@H]2O[C@@H]2[C@@H]1OC(C)=O)C(=O)[C@@H]3O`, the IC50 in the data set on HeLa is > 50 µM.
Molecule `CC(=O)O[C@@H]1[C@H]2[C@H]3[C@H]([C@H](OC(C)=O)[C@H](OC(C)=O)[C@]2(C)[C@@H]2[C@@H]1[C@]1(C)C(=C[C@H]2C)OC(=O)[C@@]1(C)O)[C@]1(C)[C@H](C[C@@H]2O[C@@H]2[C@@H]1OC(C)=O)C(=O)C3(O)O` came in with a concentration for half-maximal inhibition (IC50) in the data set on HeLa of 5 µM.
On the same count and under the same terms, as for `CC(=O)O[C@H]1[C@@H]2[C@H]([C@H](C)C=C3OC(=O)[C@@](C)(O)[C@@]32C)[C@]2(C)[C@@H]1C1=C(O)C(=O)[C@H]3C[C@@H]4O[C@@H]4[C@H](OC(C)=O)[C@]3(C)[C@H]1[C@H](OC(C)=O)[C@@H]2OC(C)=O`, the figure is 0.73 µM.

For orientation: half-life means the time in which the quantity being followed falls by half. A low value points to rapid decline. Broadly, the IC50 is the concentration needed to halve the response being measured. Read a low IC50 as greater potency in that assay.
